Test results taken from PMC11449324, “Functional comparison of human and murine equilibrative nucleobase transporter 1” (PLOS ONE, 2024).
Like-named read-outs stand apart in the source and are kept apart here.

What was measured:
HEK293-EV cells = test: MTT cell viability assay, HEK293-EV; assay type: cell-based, human; conditions: Homo sapiens, 48 h, first-phase EC50 where biphasic
Experimental: (§1) Transfected-HEK293, MOLT-4, and L1210 cells were seeded into 24-well plates at a density of 1.1x10^5 cells per well in complete culture medium. […] Medium containing no cells was used to determine spontaneous MTT reduction (background). In transfected-HEK293 cells, media was removed via a vacuum-powered aspirator and replaced with 150 μL of Dulbecco’s phosphate buffered saline (DPBS—137 mM NaCl, 2.7 mM KCl, 6.3 mM Na2HPO4, 1.5 mM KH2PO4, 0.5 mM MgCl2, 0.9 mM CaCl2, pH 7.4) containing MTT (1 mg/mL) for 90 minutes at 37°C. In MOLT-4 and L1210, cell suspension was transferred to 1.5 mL microcentrifuge tubes and centrifuged for 10 minutes at 3000 rcf. Following centrifugation, media was removed via gentle pipetting and replaced with 150 μL of DPBS containing MTT (1 mg/mL) for 90 minutes at 37°C. Microcentrifuge tubes were centrifuged again for 15 minutes at 23,500 rcf, and then DPBS containing MTT was removed via a vacuum-powered aspirator. The resultant formazan crystals were solubilized in 500 μL of DMSO and transferred to a 96-well plate in 200 μL duplicates. Absorbance was measured at 570 nm, in a SpectraMax® i3x Multi-Mode Detection Platform (Molecular Devices, San Jose, CA). After background subtraction, % cell viability was calculated as the ratio of absorbance in the presence of test compound to that measured with vehicle alone (X 100).

L1210 cells = test: MTT cell viability assay, L1210; assay type: cell-based, murine; conditions: Mus musculus, L1210, 48 h, single-phase curve
Experimental: as §1

[1] = molecular target: T1, hENBT1 (SLC43A3-encoded human ENBT1) (Homo sapiens, UniProt Q8NBI5); test: Radiolabelled substrate uptake (oil-stop, 2 s) in HEK293-hSLC43A3 cells; assay type: cell-based
T1 construct: Oligonucleotides corresponding to the coding region of SLC43A3 (NM_001278201) or slc43a3 (NM_021398); expressed in transfected cells; HEK293-hSLC43A3
T1 sequence (Q8NBI5 1-491): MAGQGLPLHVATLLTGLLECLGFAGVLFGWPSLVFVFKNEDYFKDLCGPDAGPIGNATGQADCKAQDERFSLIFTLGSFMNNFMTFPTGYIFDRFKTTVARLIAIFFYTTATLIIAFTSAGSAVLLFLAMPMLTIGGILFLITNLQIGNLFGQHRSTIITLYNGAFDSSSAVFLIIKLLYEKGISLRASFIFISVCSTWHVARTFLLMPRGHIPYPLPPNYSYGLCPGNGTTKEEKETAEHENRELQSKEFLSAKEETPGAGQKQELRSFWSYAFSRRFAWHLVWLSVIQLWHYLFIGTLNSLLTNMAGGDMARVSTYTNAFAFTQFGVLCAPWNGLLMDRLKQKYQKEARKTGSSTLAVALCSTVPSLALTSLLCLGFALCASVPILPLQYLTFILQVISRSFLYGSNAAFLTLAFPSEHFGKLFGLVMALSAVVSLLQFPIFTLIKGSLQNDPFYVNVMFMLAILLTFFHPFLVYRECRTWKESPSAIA
Experimental: Harvested cells were suspended in nominally sodium-free N-methyl-D-glucamine (NMG) buffer (140 mM NMG, 5 mM KCl, 4.2 mM KHCO3, 0.36 mM K2HPO4, 0.44 mM KH2PO4, 0.5 mM MgCl2, 1.3 mM CaCl2, 10 mM HEPES, pH 7.4), to minimize potential contribution of sodium-dependent concentrative nucleoside transporter-mediated uptake. Additionally, cells were incubated for 15 minutes at room temperature with 10 μM dipyridamole (DY), an equilibrative nucleoside transporter (ENT) inhibitor, to block equilibrative nucleoside transporter–mediated uptake. The substrate uptake assay was initiated by adding 250 μL cell suspension to 250 μL [^3H] labeled substrate, layered over 21:4 silicone:mineral oil (200 μL) in 1.5 mL microcentrifuge tubes (conducted at room temperature). The uptake reaction was terminated after 2 seconds by centrifugation of the cells through the oil layer at ~10,000 g. […] The resulting cell pellet was digested in 250 μL 1 M NaOH overnight (~16 hours), with 220 μL aliquots of digested cells assessed for radioactive content using standard liquid scintillation counting techniques in a Beckman Coulter LS6500 scintillation system (Brea, CA).
In transfected-HEK293 cell lines, total uptake was defined as uptake of radiolabeled substrate in cells overexpressing recombinant hENBT1 or mENBT1. […] ENBT1-mediated uptake was calculated as total uptake minus the non-mediated uptake. […]

HEK293-hSLC43A3 cells = test: MTT cell viability assay, HEK293-hSLC43A3; assay type: cell-based, human
Experimental: as §1

HEK293-mslc43a3 cells = test: MTT cell viability assay, HEK293-mslc43a3; assay type: cell-based, human
Experimental: as §1

MOLT-4 cells = test: MTT cell viability assay, MOLT-4; assay type: cell-based, human; conditions: for EC50: Homo sapiens, MOLT-4, 48 h, read-out: first-phase EC50 cell viability
Experimental: as §1

Question: Which results are given for `Sc1ncnc2nc[nH]c12` [6-MP, 6-Mercaptopurine]?
Answer: EC50 (HEK293-EV cells): 18.8 ± 0.51 µM; EC50 (L1210 cells): 0.6 ± 0.2 µM; 6-MP Km relative to adenine Km [1]: 3 fold; 6-MP Vmax relative to adenine Vmax [1]: 3 fold; shift in EC50 (increased sensitivity) relative to HEK293-EV cells (HEK293-hSLC43A3 cells; HEK293-hSLC43A3 vs HEK293-EV): 19 fold; EC50 (HEK293-hSLC43A3 cells; Homo sapiens, HEK293-hSLC43A3, 48 h, MTT, first-phase EC50 where biphasic): 0.99 ± 0.09 µM; shift in EC50 (increased sensitivity) relative to HEK293-EV cells (HEK293-mslc43a3 cells; HEK293-mslc43a3 vs HEK293-EV): 19 fold; EC50 (HEK293-mslc43a3 cells; Homo sapiens, HEK293-mslc43a3, 48 h, MTT, first-phase EC50 where biphasic): 0.96 ± 0.28 µM; EC50 (MOLT-4 cells; MTT, biphasic curve (Fig 10A)): 0.7 ± 0.2 µM; EC50 (MOLT-4 cells; in absence of DY, solvent DMSO present): 0.5 ± 0.1 µM; increase in 6-MP sensitivity on co-treatment with DY (MOLT-4 cells; MOLT-4, 6-MP + DY vs 6-MP + solvent): 2 fold
